What all share (format): biochemical
Assay [1] deals with T1, human JAK1 (a.a. 837-1142) (Homo sapiens, UniProt P23458).
T1 construct: human JAK1 (a.a. 837-1142); His tag (N); made in house; host or cells: insect cells (baculovirus)
As to the kind of experiment: In vitro JAK kinase assay (HTRF, phosphorylation of a biotinylated peptide), JAK1. Particulars: read-out: JAK1 IC50. A digest of the protocol:
(§1)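 Phosphorylation of a biotinylated peptide by the JAK kinase domain, detected by HTRF with Eu-Py20 and SA-APC. ATP was 90 μM for JAK1, 30 μM for JAK2 and 3 μM for JAK3. Reactions ran 1 h at room temperature and were stopped with EDTA, followed by 40 min antibody binding.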

The target in assay [2] is T2, human JAK2 (a.a. 828-1132) (Homo sapiens, UniProt O60674).
T2 construct: JAK2 (a.a. 828-1132); His tag (N); made in house; host or cells: insect cells (baculovirus)
T2 sequence (O60674 828-1132): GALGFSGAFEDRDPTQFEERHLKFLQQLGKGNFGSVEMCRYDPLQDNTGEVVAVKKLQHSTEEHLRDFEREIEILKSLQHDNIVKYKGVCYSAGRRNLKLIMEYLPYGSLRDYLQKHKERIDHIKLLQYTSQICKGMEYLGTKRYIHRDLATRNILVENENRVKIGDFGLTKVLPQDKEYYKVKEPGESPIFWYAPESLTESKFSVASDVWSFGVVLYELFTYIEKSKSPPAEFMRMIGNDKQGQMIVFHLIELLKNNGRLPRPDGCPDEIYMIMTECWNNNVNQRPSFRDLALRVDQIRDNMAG
As to the kind of experiment: In vitro JAK kinase assay (HTRF, phosphorylation of a biotinylated peptide), JAK2. A digest of the protocol:
as §1
(TR-FRET usually uses a lanthanide donor and a delayed reading to cut background.)

Assay [3] addresses T3, human JAK3 (a.a. 781-1124) (Homo sapiens, UniProt P52333).
T3 construct: JAK3 (a.a. 781-1124); His tag (N); made in house; host or cells: insect cells (baculovirus)
As to the kind of experiment: In vitro JAK kinase assay (HTRF, phosphorylation of a biotinylated peptide), JAK3. The method in brief: as §1

The next assay addresses TYK2 (Homo sapiens, UniProt P29597). As to the kind of experiment: TYK2 kinase inhibition (Table A1).
Assay [4] addresses T4, Recombinant Human Anaplastic Lymphoma Kinase (Homo sapiens, UniProt Q9UM73).
T4 construct: purchased Invitrogen, Carlsbad, Calif
As to the kind of experiment: ALK HTRF kinase assay. Particulars: for IC50: Table B1, cells without percent sign. A digest of the protocol:
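Readout was HTRF between a Eu-W1024 anti-phosphotyrosine antibody and streptavidin-APC bound to biotinylated peptide phosphorylated by recombinant human ALK. IC50 values came from a four-parameter logistic fit.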

The mark [5] stands for this setting: method AA1 (90 μM ATP) or AA2 (1000 μM ATP), not stated per value.
Where [6] appears, read: method AA1 (30 μM ATP) or AA2 (1000 μM ATP), not stated per value.
The mark [7] stands for this setting: method AA1 (3 μM ATP) or AA2 (1000 μM ATP), not stated per value.
Where [8] appears, read: compound at 500 nM or 1 mM, 90 μM ATP.
Where [9] appears, read: percentage inhibition of the example compound at a concentration of 500 nM or 1 mM (not specified which).
The mark [10] stands for this setting: compound at a concentration of 500 nM or 1 mM (not specified), cells shown as percentage.

The structures appear in SMILES notation. Structures can show the parent of a compound that is named as a salt. Where two headings read alike, the source gives them in different places. A value given as a limit tells only on which side of the number the result lay.

T1 sequence (P23458 849-1154): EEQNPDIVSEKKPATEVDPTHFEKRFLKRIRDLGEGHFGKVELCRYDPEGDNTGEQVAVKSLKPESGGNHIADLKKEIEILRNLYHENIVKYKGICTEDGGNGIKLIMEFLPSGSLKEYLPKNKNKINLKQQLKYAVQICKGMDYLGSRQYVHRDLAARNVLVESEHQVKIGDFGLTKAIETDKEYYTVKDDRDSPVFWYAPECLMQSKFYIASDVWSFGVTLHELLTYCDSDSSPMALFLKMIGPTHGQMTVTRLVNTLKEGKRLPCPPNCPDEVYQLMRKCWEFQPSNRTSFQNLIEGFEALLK
T3 sequence (P52333 781-1124): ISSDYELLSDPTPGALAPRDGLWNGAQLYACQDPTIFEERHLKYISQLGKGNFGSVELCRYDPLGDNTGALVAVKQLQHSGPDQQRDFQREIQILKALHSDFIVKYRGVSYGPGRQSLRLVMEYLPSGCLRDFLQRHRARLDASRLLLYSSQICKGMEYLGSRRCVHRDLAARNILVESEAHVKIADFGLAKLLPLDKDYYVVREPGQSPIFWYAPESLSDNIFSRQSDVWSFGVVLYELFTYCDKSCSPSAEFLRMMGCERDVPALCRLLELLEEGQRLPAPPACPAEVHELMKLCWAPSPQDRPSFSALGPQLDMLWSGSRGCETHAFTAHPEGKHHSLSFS
T4 sequence (Q9UM73 19-1620): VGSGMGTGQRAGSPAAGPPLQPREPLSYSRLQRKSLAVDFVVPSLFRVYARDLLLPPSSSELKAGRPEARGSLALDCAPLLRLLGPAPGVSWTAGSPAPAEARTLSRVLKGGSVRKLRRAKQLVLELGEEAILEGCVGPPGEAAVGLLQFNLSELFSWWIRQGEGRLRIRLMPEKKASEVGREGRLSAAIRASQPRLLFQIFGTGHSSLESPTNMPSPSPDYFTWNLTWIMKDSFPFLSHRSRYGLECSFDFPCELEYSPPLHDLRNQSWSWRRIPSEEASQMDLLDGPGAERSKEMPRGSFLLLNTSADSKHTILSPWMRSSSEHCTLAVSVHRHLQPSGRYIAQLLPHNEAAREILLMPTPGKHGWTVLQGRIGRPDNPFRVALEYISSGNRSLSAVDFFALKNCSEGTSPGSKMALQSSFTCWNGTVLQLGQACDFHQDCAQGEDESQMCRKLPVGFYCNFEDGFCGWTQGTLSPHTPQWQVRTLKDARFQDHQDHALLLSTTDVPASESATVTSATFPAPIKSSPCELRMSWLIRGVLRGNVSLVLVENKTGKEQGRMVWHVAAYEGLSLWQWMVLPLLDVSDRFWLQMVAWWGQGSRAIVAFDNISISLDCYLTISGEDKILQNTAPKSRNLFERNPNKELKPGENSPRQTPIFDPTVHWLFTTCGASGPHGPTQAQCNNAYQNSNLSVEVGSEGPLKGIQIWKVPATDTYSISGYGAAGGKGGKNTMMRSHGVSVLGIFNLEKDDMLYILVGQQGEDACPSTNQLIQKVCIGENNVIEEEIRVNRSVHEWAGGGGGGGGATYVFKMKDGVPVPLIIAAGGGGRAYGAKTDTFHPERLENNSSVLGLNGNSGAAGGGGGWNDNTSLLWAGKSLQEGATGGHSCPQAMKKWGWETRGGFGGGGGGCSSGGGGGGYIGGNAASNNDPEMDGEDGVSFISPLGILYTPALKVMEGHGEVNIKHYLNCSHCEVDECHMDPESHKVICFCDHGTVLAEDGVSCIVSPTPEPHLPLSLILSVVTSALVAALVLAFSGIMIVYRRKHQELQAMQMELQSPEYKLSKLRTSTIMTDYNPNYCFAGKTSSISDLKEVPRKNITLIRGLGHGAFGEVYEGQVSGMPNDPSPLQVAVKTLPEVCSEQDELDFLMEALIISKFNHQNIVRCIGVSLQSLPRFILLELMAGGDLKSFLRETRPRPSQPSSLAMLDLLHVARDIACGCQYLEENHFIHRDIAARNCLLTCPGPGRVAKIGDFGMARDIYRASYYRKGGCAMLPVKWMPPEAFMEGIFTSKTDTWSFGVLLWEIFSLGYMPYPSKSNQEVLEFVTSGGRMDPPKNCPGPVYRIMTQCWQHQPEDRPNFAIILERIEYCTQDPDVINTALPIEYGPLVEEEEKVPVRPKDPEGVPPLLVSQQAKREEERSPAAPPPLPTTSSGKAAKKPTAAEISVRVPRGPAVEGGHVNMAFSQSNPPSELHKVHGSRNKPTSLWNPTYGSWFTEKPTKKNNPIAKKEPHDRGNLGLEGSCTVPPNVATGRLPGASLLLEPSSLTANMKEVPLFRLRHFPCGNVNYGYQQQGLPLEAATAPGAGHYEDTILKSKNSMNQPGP
TYK2, sequence (P29597 whole entry): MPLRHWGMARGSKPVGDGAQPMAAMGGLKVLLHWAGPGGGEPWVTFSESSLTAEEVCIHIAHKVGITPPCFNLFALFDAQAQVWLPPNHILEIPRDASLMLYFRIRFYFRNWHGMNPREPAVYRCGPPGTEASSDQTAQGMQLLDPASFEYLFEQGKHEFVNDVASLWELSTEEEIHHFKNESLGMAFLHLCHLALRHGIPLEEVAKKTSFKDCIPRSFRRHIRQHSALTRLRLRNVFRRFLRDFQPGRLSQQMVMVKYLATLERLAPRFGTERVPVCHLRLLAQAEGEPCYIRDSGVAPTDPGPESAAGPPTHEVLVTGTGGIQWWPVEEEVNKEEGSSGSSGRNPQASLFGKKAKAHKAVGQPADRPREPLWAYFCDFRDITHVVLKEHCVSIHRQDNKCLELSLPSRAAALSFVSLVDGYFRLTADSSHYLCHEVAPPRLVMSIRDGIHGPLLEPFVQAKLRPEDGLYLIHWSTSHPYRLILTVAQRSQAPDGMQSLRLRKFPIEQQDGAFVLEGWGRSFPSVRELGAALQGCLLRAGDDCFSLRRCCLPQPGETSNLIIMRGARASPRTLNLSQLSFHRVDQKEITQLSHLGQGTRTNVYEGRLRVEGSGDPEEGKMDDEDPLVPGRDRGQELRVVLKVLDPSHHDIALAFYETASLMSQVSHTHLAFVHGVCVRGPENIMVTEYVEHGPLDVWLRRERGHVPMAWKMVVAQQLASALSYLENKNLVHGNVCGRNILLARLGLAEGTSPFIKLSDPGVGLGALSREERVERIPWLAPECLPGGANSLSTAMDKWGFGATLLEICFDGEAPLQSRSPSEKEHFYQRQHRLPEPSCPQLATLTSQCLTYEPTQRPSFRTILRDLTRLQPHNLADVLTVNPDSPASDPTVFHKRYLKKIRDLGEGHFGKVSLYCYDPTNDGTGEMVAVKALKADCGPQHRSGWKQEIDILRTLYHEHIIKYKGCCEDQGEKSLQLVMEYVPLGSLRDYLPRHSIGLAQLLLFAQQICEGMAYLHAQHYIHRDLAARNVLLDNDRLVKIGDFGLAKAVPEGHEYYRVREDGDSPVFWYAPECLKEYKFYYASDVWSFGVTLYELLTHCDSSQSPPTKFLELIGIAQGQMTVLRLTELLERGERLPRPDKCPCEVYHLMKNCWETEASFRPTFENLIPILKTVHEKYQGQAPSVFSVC

For orientation: IC50 means the concentration at which inhibition is half-maximal. For `CC(C)C(=O)N1CCC(CC(=O)Nc2ccc3cc2CCc2cncc(c2)Nc2ncc(Cl)c(n2)N3)CC1` [Example A103, N-[6-Chloro-2,4,8,18,22-pentaazatetracyclo[14.3.1.1(3,7).1(9,13)]docosa-1(20),3(22),4,6,9(21),10,12,16,18-nonaen-12-yl]-2-(1-isobutyrylpiperidin-4-yl)acetamide bis(trifluoroacetate)], the IC50 was 10 nM in assay [1] (setting [5]), 21 nM in assay [2] (setting [6]), 156 nM in assay [3] (setting [7]) and 15 nM at TYK2. Further, the “ALK % of inhibition at a concentration of 500 nM or 1 mM” value (from here on “ALK % of inhibition”) in assay [4] (setting [8]) was determined as 24%.

In the case of `Cc1cc(N2CCC(CC(=O)Nc3ccc4cc3CCc3cncc(c3)Nc3ncc(Cl)c(n3)N4)CC2)no1` [Example A247, N-[6-Chloro-2,4,8,18,22-pentaazatetracyclo[14.3.1.1(3,7).1(9,13)]docosa-1(20),3(22),4,6,9(21),10,12,16,18-nonaen-12-yl]-2-[1-(5-methylisoxazol-3-yl)piperidin-4-yl]acetamide bis(trifluoroacetate)], the concentration for half-maximal inhibition (IC50) in assay [1] (setting [5]) was 6.9 nM; in assay [2] (setting [6]), 72 nM; in assay [3] (setting [7]), more than 200 nM; on TYK2, 84 nM. In addition, in assay [4] (setting [8]), the “ALK % of inhibition” value is on record as 35%.

For the compound `O=C(CC1CCN(C(=O)NC2CCCC2)CC1)Nc1ccc2cc1CCc1cccc(c1)Nc1ncc(Cl)c(n1)N2` [Example A64, 4-(2-{[6-Chloro-2,4,8,22-tetraazatetracyclo[14.3.1.1(3,7).1(9,13)]docosa-1(20),3(22),4,6,9(21),10,12,16,18-nonaen-12-yl]amino}-2-oxoethyl)-N-cyclopentylpiperidine-1-carboxamide trifluoroacetate], the IC50 in assay [1] (setting [5]) amounted to 13 nM; in assay [2] (setting [6]), 6.5 nM; in assay [3] (setting [7]), 30 nM; against TYK2 it was 23 nM. The “ALK % of inhibition” value in assay [4] (setting [8]) is 23%.

As to `CC(=O)N1CCN(CC(=O)Nc2ccc3cc2CCc2cncc(c2)Nc2ncc(Cl)c(n2)N3)CC1` [Example A127, 2-(4-Acetylpiperazin-1-yl)-N-[6-chloro-2,4,8,18,22-pentaazatetracyclo[14.3.1.1(3,7).1(9,13)]docosa-1(20),3(22),4,6,9(21),10,12,16,18-nonaen-12-yl]acetamide tris(trifluoroacetate)], the IC50 in assay [1] (setting [5]) was found to be 31 nM; in assay [2] (setting [6]), 64 nM; in assay [3] (setting [7]), 350 nM; at TYK2, 59 nM. For the same compound, the “ALK % of inhibition” value in assay [4] (setting [8]) turned out to be 15%.

`O=C(CC1CCN(C(=O)c2cccnc2)CC1)Nc1ccc2cc1CCc1cccc(c1)Nc1ncc(Cl)c(n1)N2` [Example A184, N-[6-Chloro-2,4,8,22-tetraazatetracyclo[14.3.1.1(3,7).1(9,13)]docosa-1(20),3(22),4,6,9(21),10,12,16,18-nonaen-12-yl]-2-[1-(pyridin-3-ylcarbonyl)piperidin-4-yl]acetamide bis(trifluoroacetate)]: the IC50 is 43 nM in assay [1] (setting [5]), 79 nM in assay [2] (setting [6]), more than 200 nM in assay [3] (setting [7]) and more than 200 nM on TYK2. Further, the “ALK % of inhibition” value in assay [4] (setting [8]) is 29%.

Consider `O=C(Nc1ccc2cc1CCc1cncc(c1)Nc1ncc(Cl)c(n1)N2)N1CCN(S(=O)(=O)c2ccccc2)CC1` [Example B319, N-[6-Chloro-2,4,8,18,22-pentaazatetracyclo[14.3.1.1(3,7).1(9,13)]docosa-1(20),3(22),4,6,9(21),10,12,16,18-nonaen-12-yl]-4-(phenylsulfonyl)piperazine-1-carboxamide bis(trifluoroacetate)], for which the IC50 in assay [1] (Table B1) was 42 nM; in assay [2] (Table B1), more than 400 nM; in assay [3] (Table B1), more than 400 nM; at TYK2 (Table B1), 288 nM. Further, the “ALK % of inhibition” value in assay [4] (setting [9]) stood at 58%.

On to `CNC(=O)N1CC[C@H](NC(=O)Nc2ccc3cc2CCc2cccc(c2)Nc2ncc(Cl)c(n2)N3)C1` [Example B169, (3S)-3-[({[6-Chloro-2,4,8,22-tetraazatetracyclo[14.3.1.1(3,7).1(9,13)]docosa-1(20),3(22),4,6,9(21),10,12,16,18-nonaen-12-yl]amino}carbonyl)amino]-N-methylpyrrolidine-1-carboxamide Trifluoracetate], for which the IC50 in assay [1] (Table B1) came to 3.3 nM; in assay [2] (Table B1) it was 12 nM; in assay [3] (Table B1), 47 nM; against TYK2 (Table B1) it was 26 nM. Moreover, the “ALK % of inhibition” value in assay [4] (setting [10]) was 17%.

On to `O=C(Nc1cc2cc(c1)Nc1nc(ncc1Cl)Nc1cccc(c1)CC2)c1nccs1` [Example B209, N-[6-Chloro-2,4,8,22-tetraazatetracyclo[14.3.1.1(3,7).1(9,13)]docosa-1(20),3(22),4,6,9(21),10,12,16,18-nonaen-11-yl]-1,3-thiazole-2-carboxamide trifluoroacetate], for which the IC50 was 64 nM in assay [1] (Table B1); 51 nM in assay [2] (Table B1); 140 nM in assay [3] (Table B1); 110 nM against TYK2 (Table B1); more than 1000 nM in assay [4].

In the case of `CS(=O)(=O)N1CCN(C(=O)Nc2ccc3cc2CCc2cncc(c2)Nc2ncc(Cl)c(n2)N3)CC1` [Example B318, N-[6-Chloro-2,4,8,18,22-pentaazatetracyclo[14.3.1.1(3,7).1(9,13)]docosa-1(20),3(22),4,6,9(21),10,12,16,18-nonaen-12-yl]-4-(methylsulfonyl)piperazine-1-carboxamide bis(trifluoroacetate)], the IC50 in assay [1] (Table B1) was 24 nM; in assay [2] (Table B1), 371 nM; in assay [3] (Table B1), more than 400 nM; against TYK2 (Table B1), 70 nM. Moreover, the “ALK % of inhibition” value in assay [4] (setting [9]) amounted to 61%.

Regarding `Cc1ccc(N2CCC(CC(=O)Nc3ccc4cc3CCc3cncc(c3)Nc3ncc(Cl)c(n3)N4)CC2)nn1` [Example A173, N-[6-Chloro-2,4,8,18,22-pentaazatetracyclo[14.3.1.1(3,7).1(9,13)]docosa-1(20),3(22),4,6,9(21),10,12,16,18-nonaen-12-yl]-2-[1-(6-methylpyridazin-3-yl)piperidin-4-yl]acetamide tris(trifluoroacetate)], the IC50 is 8 nM in assay [1] (setting [5]), 89 nM in assay [2] (setting [6]), more than 1000 nM in assay [3] (setting [7]) and 105 nM against TYK2. Besides, the “ALK % of inhibition” value in assay [4] (setting [8]) turned out to be 40%.

For the compound `N#Cc1cccc(NC(=O)Nc2ccc3cc2CCc2cccc(c2)Nc2ncc(Cl)c(n2)N3)c1` [Example B95, N-[6-Chloro-2,4,8,22-tetraazatetracyclo[14.3.1.1(3,7).1(9,13)]docosa-1(20), 3(22),4,6,9(21),10,12,16,18-nonaen-12-yl]-N′-(3-cyanophenyl)urea trifluoroacetate], the IC50 in assay [1] (Table B1) was 2.1 nM; in assay [2] (Table B1), 4.1 nM; in assay [3] (Table B1) it was 67 nM; on TYK2 (Table B1) it was 7.8 nM; in assay [4] it was more than 1000 nM.

As to `O=C(Nc1nc(C(=O)O)cs1)Nc1ccc2cc1CCc1cccc(c1)Nc1ncc(Cl)c(n1)N2` [Example B250, 2-[({[6-Chloro-2,4,8,22-tetraazatetracyclo[14.3.1.1(3,7).1(9,13)]docosa-1(20),3(22),4,6,9(21),10,12,16,18-nonaen-12-yl]amino}carbonyl)amino]-1,3-thiazole-4-carboxylic acid trifluoroacetate], the IC50 was determined as 28 nM in assay [1] (Table B1), 28 nM in assay [2] (Table B1), 6.3 nM in assay [3] (Table B1) and 5.5 nM at TYK2 (Table B1). In addition, in assay [4] (setting [10]), the “ALK % of inhibition” value was 66%.

For `O=C(Nc1ccc2cc1CCc1cccc(c1)Nc1ncc(Cl)c(n1)N2)c1ccccc1Cl` [Example B41, 2-Chloro-N-[6-chloro-2,4,8,22-tetraazatetracyclo[14.3.1.1(3,7).1(9,13)]docosa-1(20),3(22),4,6,9(21),10,12,16,18-nonaen-12-yl]benzamide hydrochloride], the IC50 in assay [1] (Table B1) turned out to be 1.7 nM; in assay [2] (Table B1) it was 0.63 nM; in assay [3] (Table B1), 6.5 nM; at TYK2 (Table B1), 2.3 nM; in assay [4] it was 140 nM.

On to `O=C(Nc1ccc2cc1CCc1cncc(c1)Nc1ncc(Cl)c(n1)N2)N1CCN(c2ccc(F)cc2)CC1` [Example B297, N-[6-Chloro-2,4,8,18,22-pentaazatetracyclo[14.3.1.1(3,7).1(9,13)]docosa-1(20),3(22),4,6,9(21),10,12,16,18-nonaen-12-yl]-4-(4-fluorophenyl)piperazine-1-carboxamide tris(trifluoroacetate)], for which the IC50 in assay [1] (Table B1) was 27 nM; in assay [2] (Table B1), 67 nM; in assay [3] (Table B1), more than 400 nM; on TYK2 (Table B1), 36 nM. Moreover, the “ALK % of inhibition” value in assay [4] (setting [10]) turned out to be 66%.
